{"source": "patent US20230212221A1", "about": "“Novel Therapeutic Uses of Mu-Opiate Receptor Peptides” (Cytogel Pharma, LLC, priority 2012, published 2023)", "key": {"[1]": {"biological_target": "T1, human mu-opioid receptor (hOPRM1) (Homo sapiens, UniProt P35372)", "T1 construct": "expressed in transfected cells", "T1 sequence (P35372 whole entry)": "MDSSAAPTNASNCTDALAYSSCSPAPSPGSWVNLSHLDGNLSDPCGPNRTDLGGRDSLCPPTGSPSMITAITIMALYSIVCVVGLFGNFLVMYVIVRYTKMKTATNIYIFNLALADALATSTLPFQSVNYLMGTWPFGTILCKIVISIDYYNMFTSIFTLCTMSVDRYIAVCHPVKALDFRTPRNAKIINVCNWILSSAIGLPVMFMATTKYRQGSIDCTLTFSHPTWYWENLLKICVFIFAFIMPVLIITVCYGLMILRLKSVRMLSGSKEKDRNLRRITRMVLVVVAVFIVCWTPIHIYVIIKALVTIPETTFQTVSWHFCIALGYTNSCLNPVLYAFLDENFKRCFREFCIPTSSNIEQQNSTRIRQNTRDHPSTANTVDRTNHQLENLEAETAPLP", "assay": "cell-based", "procedure": "The effect of mu-opioid receptor agonists on beta-arrestin recruitment is determined using the PathHunter™ beta-arrestin assay. Briefly, PathHunter™ cell lines expressing human mu-opioid receptor (hOPRM1) are seeded in 384-well microplates at a density of 5,000 cells/well in a total volume of 20 μl, and are allowed to adhere and recover overnight. […] The cells are incubated with the mu-opioid receptor agonist at 37° C. for 90 minutes. The experiment is performed in duplicate.\nMicroplates are read following signal generation with a PerkinElmer Envision™ instrument for chemiluminescent signal detection.\nPercentage activity is calculated using the following formula: % Activity=100%×(mean RLU (relative luminescence unit) of test sample−mean RLU of vehicle control)/(mean MAX RLU control ligand −mean RLU of vehicle control))."}, "[2]": {"biological_target": "T1, human mu-opioid receptor (hOPRM1)", "assay": "cell-based", "procedure": "The effect of mu-opioid receptor agonists on the inhibition of cAMP production is determined using the […]. Briefly, cAMP Hunter™ cell lines expressing human mu-opioid receptor (hOPRM1) are seeded in 384-well microplates at a density of 10,000 cells/well in a total volume of 20 μl, and are allowed to adhere and recover overnight. […] The cells are incubated with the mu-opioid receptor agonist in the presence of 20 μM forskolin at 37° C. for 30 minutes. The experiment is performed in duplicate.\nAssay signal is generated through incubation with 20 μL cAMP XS+ED/CL lysis cocktail for one hour followed by incubation with 20 μL cAMP XS+EA reagent for three hours at room temperature. Microplates are read following signal generation with a PerkinElmer Envision™ instrument for chemiluminescent signal detection.\nPercentage activity is calculated using the following formula: % Activity=100%×(1−(mean RLU of test sample−mean RLU of MAX control)/(mean RLU of vehicle control−mean RLU of MAXcontrol).", "remark": "listed apart in the source"}, "delta receptors": {"biological_target": "delta receptors (Homo sapiens, UniProt P41143)", "sequence (P41143 whole entry)": "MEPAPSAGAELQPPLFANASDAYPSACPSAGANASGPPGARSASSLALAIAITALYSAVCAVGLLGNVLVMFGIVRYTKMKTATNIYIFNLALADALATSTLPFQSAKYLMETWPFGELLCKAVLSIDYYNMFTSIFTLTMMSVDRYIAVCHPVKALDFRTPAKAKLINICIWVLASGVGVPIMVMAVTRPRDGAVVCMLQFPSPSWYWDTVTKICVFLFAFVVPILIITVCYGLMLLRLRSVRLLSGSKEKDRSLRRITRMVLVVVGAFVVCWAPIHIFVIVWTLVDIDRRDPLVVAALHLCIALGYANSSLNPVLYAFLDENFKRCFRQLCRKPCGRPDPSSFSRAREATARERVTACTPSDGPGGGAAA", "settings": "relative to mu-opiate receptor binding"}}, "note": "Read-outs that look alike come from different tables or passages of the source."}
{"compound": "NC(Cc1ccc(O)cc1)C(=O)NC1CCCCNC(=O)C(Cc2ccccc2)NC(=O)C(Cc2c[nH]c3ccccc23)NC1=O", "note": "[CYT-1010, H-Tyr-c-[D-Lys-Trp-Phe]]", "values": [{"measurement": "EC50", "setting": "[1]; PathHunter cells expressing hOPRM1, 90 minutes at 37° C., duplicate, read-out: EC50 (nM), beta-arrestin recruitment", "value": 13.1, "unit": "nM"}, {"measurement": "Max Percent Activity, beta-arrestin recruitment", "setting": "[1]; normalized to control ligand and vehicle, PathHunter cells expressing hOPRM1", "value": 121.2, "unit": "%"}, {"measurement": "EC50", "setting": "[2]; cAMP Hunter cells expressing hOPRM1, 20 μM forskolin, 30 minutes at 37° C., duplicate, read-out: EC50 (nM), inhibition of cAMP production", "value": 0.0053, "unit": "nM"}, {"measurement": "Max Percent Activity, inhibition of cAMP production", "setting": "[2]; normalized to control ligand and vehicle, 20 μM forskolin", "value": 98.350, "unit": "%"}]}
{"compound": "H-Tyr-Pro-Trp-Phe-NH2 [SEQ ID NO:1]", "values": [{"measurement": "fold weaker binding to delta receptors", "setting": "delta receptors", "value": "over 4,000 fold"}]}
{"compound": "met-enkephalin [reference compound]", "values": [{"measurement": "Max Percent Activity, beta-arrestin recruitment", "setting": "[1]", "value": 100.1, "unit": "%"}, {"measurement": "Max Percent Activity, inhibition of cAMP production", "setting": "[2]", "value": 102.800, "unit": "%"}]}
